US11639353B2, “Cyclobutanes- and azetidine-containing mono and spirocyclic compounds as αV integrin inhibitors” (BRISTOL-MYERS SQUIBB COMPANY, priority 2016, dated 2023)
Counter-ions that a name gives are not always drawn.

target: T1, human αVβ6 (Homo sapiens, UniProt P06756+P18564); experiment: human αVβ6 HTRF binding assay; conditions: alternatively SPA-based assay
T1 construct: purchased R & D systems 3817-AV
Method: All binding assays used the HTRF (homogeneous time resolved fluorescence) technology from Cisbio International, therefore all assays are described as HTRF binding assays. The assay results for the Examples are listed above together with the characterization data. The HTRF binding assays are established for the following integrins: human αVβ6, human αVβ1, human αVβ3, human αVβ5, and human αVβ8. All assays used the following assay buffer: 20 mM Tris, pH 7.4, 1 mM MgCl2, 1 mM MnCl2, 0.01% Tween 20, and 0.01% BSA. Alternatively, a SPA-based assay was used for evaluation of receptor binding.
The following describes the components and a representative procedure for the human αVβ6 HTRF binding assay: Recombinant human αVβ6 Integrin (R & D systems, 3817-AV) was biotinylated. Biotinylated human αVβ6 Integrin was added to assay vessel at a final concentration of 1.25 nM. FITC-conjugated fibronectin (Cytoskeleton, FNR02) was then added at the final concentration of 5 nM. The mixture was centrifuged at 600 rpm for three minutes using Thermo Fisher Heraeus Multifuge X3 centrifuge and then incubated at RT for an hour. Streptavidin Terbium (Cisbio international 610STLB) was then added at the final concentration of 0.625 nM. The resulting mixture was centrifuged at 600 rpm for three minutes using Thermo Fisher Heraeus Multifuge X3 centrifuge and then incubated at room temperature overnight in dark before reading HTRF signals.
The SPA-based assay was carried out according to the protocol and procedures similar to the ones described in the following reference with appropriate modifications to agents and ligands which are readily understood by one skilled in the art: Pachter J A, Zhang R, Mayer-Ezell R., “Scintillation proximity assay to measure binding of soluble fibronectin to antibody-captured αVβ1 integrin” Anal Biochem. 1995 Sep. 1; 230(1):101-7.

T1 sequence (P06756 31-992 limits assumed): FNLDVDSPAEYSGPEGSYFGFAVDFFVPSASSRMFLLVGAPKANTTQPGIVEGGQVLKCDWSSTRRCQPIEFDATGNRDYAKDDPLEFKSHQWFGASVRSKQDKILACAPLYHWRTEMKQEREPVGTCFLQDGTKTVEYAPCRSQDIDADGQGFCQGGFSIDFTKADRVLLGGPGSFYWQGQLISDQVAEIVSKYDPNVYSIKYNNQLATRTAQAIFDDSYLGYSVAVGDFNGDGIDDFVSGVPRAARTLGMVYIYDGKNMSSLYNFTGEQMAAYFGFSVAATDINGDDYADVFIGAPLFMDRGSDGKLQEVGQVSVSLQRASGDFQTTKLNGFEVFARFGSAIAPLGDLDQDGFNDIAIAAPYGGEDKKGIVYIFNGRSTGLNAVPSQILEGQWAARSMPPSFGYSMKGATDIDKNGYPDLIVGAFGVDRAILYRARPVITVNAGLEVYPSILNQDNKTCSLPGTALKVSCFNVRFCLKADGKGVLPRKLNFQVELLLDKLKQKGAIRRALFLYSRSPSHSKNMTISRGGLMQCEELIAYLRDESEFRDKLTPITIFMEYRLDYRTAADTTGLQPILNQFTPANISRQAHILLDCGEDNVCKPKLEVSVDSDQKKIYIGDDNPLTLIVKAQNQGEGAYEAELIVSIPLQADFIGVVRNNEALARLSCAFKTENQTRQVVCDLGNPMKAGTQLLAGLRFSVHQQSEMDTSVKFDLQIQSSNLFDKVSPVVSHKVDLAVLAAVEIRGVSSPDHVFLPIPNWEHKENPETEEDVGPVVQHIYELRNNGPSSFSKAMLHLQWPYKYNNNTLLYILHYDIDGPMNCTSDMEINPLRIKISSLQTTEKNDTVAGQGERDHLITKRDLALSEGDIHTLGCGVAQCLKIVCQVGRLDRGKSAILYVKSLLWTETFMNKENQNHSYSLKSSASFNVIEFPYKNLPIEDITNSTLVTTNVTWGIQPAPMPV
T1 sequence (P18564 22-707 limits assumed): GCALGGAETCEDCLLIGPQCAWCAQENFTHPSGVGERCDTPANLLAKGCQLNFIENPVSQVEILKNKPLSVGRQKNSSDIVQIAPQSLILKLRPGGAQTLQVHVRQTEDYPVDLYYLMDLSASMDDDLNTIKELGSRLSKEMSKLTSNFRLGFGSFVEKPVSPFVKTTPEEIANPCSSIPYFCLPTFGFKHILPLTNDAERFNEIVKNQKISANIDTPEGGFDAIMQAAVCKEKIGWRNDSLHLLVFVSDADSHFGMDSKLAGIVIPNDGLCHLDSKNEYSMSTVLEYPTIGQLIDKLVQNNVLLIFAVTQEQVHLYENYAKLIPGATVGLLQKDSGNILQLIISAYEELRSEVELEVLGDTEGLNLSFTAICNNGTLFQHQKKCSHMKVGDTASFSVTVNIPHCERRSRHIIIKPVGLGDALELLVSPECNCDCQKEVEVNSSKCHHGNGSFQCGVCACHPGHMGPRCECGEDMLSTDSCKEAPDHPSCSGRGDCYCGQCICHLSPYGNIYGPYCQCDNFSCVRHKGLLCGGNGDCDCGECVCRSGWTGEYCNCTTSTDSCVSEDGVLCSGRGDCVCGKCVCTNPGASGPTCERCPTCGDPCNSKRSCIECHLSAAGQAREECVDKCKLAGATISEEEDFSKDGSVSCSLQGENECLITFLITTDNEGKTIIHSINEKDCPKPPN

| Compound | IC50 [nM] |
| --- | --- |
| O=C(O)CC(c1cnc2ccccc2c1)C1CN(CCCCc2ccc3c(n2)NCCC3)C1 (stereo not shown) [Example 142] | 9.9 |
| O=C(O)C[C@@H](c1ccc(F)c(F)c1)N1CC(CCCCc2ccc3c(n2)NCCC3)C1=O (stereo partly shown) [Example 113] | 12 |
| CC(=O)N(C1CN(CCCc2ccc3c(n2)NCCC3)C1)[C@@H](CC(=O)O)c1cc(Cl)cc(Cl)c1 [Example 21, (S)-3-(3,5-Dichlorophenyl)-3-(N-(1-(3-(5,6,7,8-tetrahydro-1,8-naphthyridin-2-yl)propyl)azetidin-3-yl)acetamido)propanoic acid] | 9.8 |
| O=C(O)CC(c1cnc2ccccc2c1)N1CC(OCCCc2ccc3c(n2)NCCC3)C1 (stereo not shown) [Example 133] | 5.6 |
| Cc1ncc([C@H](CC(=O)O)N2CC(OCCCc3ccc4c(n3)NCCC4)C2)cn1 [example 131, (S)-3-(2-methylpyrimidin-5-yl)-3-(3-(3-(5,6,7,8-tetrahydro-1,8-naphthyridin-2-yl)propoxy)azetidin-1-yl)propanoic acid] | 7.5 |
| O=C(O)CC(c1ccc(N2CCOCC2)nc1)C1CC2(CC(CCc3ccc4c(n3)NCCC4)C2)C1 (stereo not shown) [Example 144] | 4.9 |
| Cc1ncc([C@@H](CC(=O)O)N2CC(OCCCc3ccc4c(n3)NCCC4)C2)cn1 [example 132, (R)-3-(2-methylpyrimidin-5-yl)-3-(3-(3-(5,6,7,8-tetrahydro-1,8-naphthyridin-2-yl)propoxy)azetidin-1-yl)propanoic acid] | 25 |
| O=C(N[C@@H](CC(=O)N1CC(CCc2ccc3c(n2)NCCC3)C1)C(=O)O)OCc1cccc(F)c1 [Example 176] | 294 |
| CC(=O)N(CCCc1ccc2c(n1)NCCC2)C1CC(C(CC(=O)O)c2cccc(N3CCOCC3)c2)C1 (stereo not shown) [Example 149, 3-(3-Morpholinophenyl)-3-(3-(N-(3-(5,6,7,8-tetrahydro-1,8-naphthyridin-2-yl)propyl)acetamido)cyclobutyl)propanoic acid] | 4.6 |
| CCOC(=O)C[C@H](NC(=O)C1CC2(C1)CN(CCc1ccc3c(n1)NCCC3)C2)c1ccc(OC)c(F)c1 [Example 31] | 230 |
| COc1ccc([C@H](CC(=O)O)C2(F)CN(C(=O)CCCc3ccc4c(n3)NCCC4)C2)cc1F [Example 94] | 10 |
| N[C@@H](CNC(=O)C1CN(CCc2ccc3c(n2)NCCC3)C1)C(=O)O [Example 55] | 20 |
| COc1ccc([C@H](CC(=O)O)N2CC(CCCc3ccc4c(n3)NCCC4)C2=O)cc1F (single isomer, unassigned) [Example 180] | 17 |
| O=C(O)CC(NC(=O)[C@H]1C[C@H](CCc2ccc3c(n2)NCCC3)C1)c1cnc(C(F)(F)F)nc1 (single isomer, unassigned) [Example 194, 3-(trans-3-(2-(5,6,7,8-Tetrahydro-1,8-naphthyridin-2-yl)ethyl)cyclobutane-1-carboxamido)-3-(2-(trifluoromethyl)pyrimidin-5-yl)propanoic acid] | 21 |
| Cc1ncc(C(CC(=O)O)N2CC3(CC(Cc4ccc5c(n4)NCCC5)C3)C2)cn1 (stereo not shown) [Example 209, 3-(2-methylpyrimidin-5-yl)-3-(6-((5,6,7,8-tetrahydro-1,8-naphthyridin-2-yl)methyl)-2-azaspiro[3.3]heptan-2-yl)propanoic acid] | 6.8 |
| O=C(O)CC(c1cnc2ccccc2c1)C1CC2(C1)CN(CCc1ccc3c(n1)NCCC3)C2 (stereo not shown) [Example 101] | 4.7 |
| O=C(N[C@@H](CNC(=O)[C@H]1C[C@@H](Cc2ccc3c(n2)NCCC3)C1)C(=O)O)OCc1cccc(F)c1 (relative stereo) [Example 197] | 197 |
| CCOC(=O)C[C@H](NC(=O)C1CN(CCc2ccc3c(n2)NCCC3)C1)c1ccc(OC)nc1 [Example 48] | 400 |
| COc1ccc(C(NC(=O)C2CC(CCc3ccc4c(n3)NCCC4)C2)C(C)(C)C(=O)O)cn1 (single isomer, unassigned) [Example 189, 3-(6-methoxypyridin-3-yl)-2,2-dimethyl-3-(3-(2-(5,6,7,8-tetrahydro-1,8-naphthyridin-2-yl)ethyl)cyclobutane-1-carboxamido)propanoic acid] | 5000 |
| COc1ccc(C(CC(=O)O)C2(F)CN(CCCCc3ccc4c(n3)NCCC4)C2)cn1 (stereo not shown) [Example 122] | 28 |
| O=C(N[C@@H](CC(=O)N1CC(CCc2ccc3c(n2)NCCC3)C1)C(=O)O)OCC1CCC1 [Example 174, (S)-2-(((cyclobutylmethoxy)carbonyl)amino)-4-oxo-4-(3-(2-(5,6,7,8-tetrahydro-1,8-naphthyridin-2-yl)ethyl)azetidin-1-yl)butanoic acid] | 68 |
| COc1ccc(C(CC(=O)O)N2CC(OCCCc3ccc4c(n3)NCCC4)C2)cc1F (stereo not shown) [Example 135, 3-(3-fluoro-4-methoxyphenyl)-3-(3-(3-(5,6,7,8-tetrahydro-1,8-naphthyridin-2-yl)propoxy)azetidin-1-yl)propanoic acid, 2 TFA] | 4.9 |
| O=C(O)CC(c1cnc2ccccc2c1)C1(F)CN(CCCCc2ccc3c(n2)NCCC3)C1 (stereo not shown) [Example 118] | 5.9 |
| (S)-Ethyl 3-(6-methoxypyridin-3-yl)-3-(1-methyl-3-(2-(5,6,7,8-tetrahydro-1,8-naphthyridin-2-yl)ethyl)cyclobutanecarboxamido)propanoate [Example 16] | 2.6 |

Second part, the compound after the results:

| IC50 [nM] | Compound |
| --- | --- |
| 3.3 | Cc1ncc([C@H](CC(=O)O)N2CC(F)(CCCCc3ccc4c(n3)NCCC4)C2)cn1 [Example 167] |
| 0.8 | O=C(N[C@@H](COC1CN(CCCc2ccc3c(n2)NCCC3)C1)C(=O)O)OCc1ccccc1 [Example 10, N-((Benzyloxy)carbonyl)-O-(1-(3-(5,6,7,8-tetrahydro-1,8-naphthyridin-2-yl)propyl)azetidin-3-yl)-L-serine] |
| 0.53 | CN(C1CN(CCCc2ccc3c(n2)NCCC3)C1)[C@@H](CC(=O)O)c1cc(Cl)cc(Cl)c1 [Example 98] |
| 0.6 | COc1ccc([C@H](CC(=O)O)NC(=O)C2(F)CN(CCc3ccc4c(n3)NCCC4)C2)cn1 [Example 46] |
| 1.1 | COc1ccc([C@H](CC(=O)O)NC2CN(CCCc3ccc4c(n3)NCCC4)C2)cc1F [Example 72] |
| 0.5 | COc1ccc([C@H](CC(=O)O)NC2CN(CCCc3ccc4c(n3)NCCC4)C2)cn1 [Example 11, (S)-3-(6-Methoxypyridin-3-yl)-3-((1-(3-(5,6,7,8-tetrahydro-1,8-naphthyridin-2-yl)propyl)azetidin-3-yl)amino)propanoic acid] |
| 2.6 | O=C(O)C[C@@H](c1ccc(F)c(F)c1)N1CC(F)(CCCCc2ccc3c(n2)NCCC3)C1 [Example 164] |
| 3.6 | Cc1cc(C)n(-c2cccc(C(CC(=O)O)N3CC4(CC(Cc5ccc6c(n5)NCCC6)C4)C3)c2)n1 (stereo not shown) [Example 211, 3-(3-(3,5-dimethyl-1H-pyrazol-1-yl)phenyl)-3-(6-((5,6,7,8-tetrahydro-1,8-naphthyridin-2-yl)methyl)-2-azaspiro[3.3]heptan-2-yl)propanoic acid] |
| 0.8 | O=C(O)C[C@H](NC(=O)C1CN(CCc2ccc3c(n2)NCCC3)C1)c1cc(Cl)cc(Cl)c1 [Example 38] |
| 0.6 | COc1ccc([C@H](CC(=O)O)NC(=O)C2(F)CN(CCc3ccc4c(n3)NCCC4)C2)cc1F [Example 44] |
| 1.5 | O=C(O)C[C@@H](c1cc(F)cc(F)c1)N1CC(CCCCc2ccc3c(n2)NCCC3)C1=O (stereo partly shown) [Example 71] |
| 2 | CC(C)(C)c1cc(Br)cc([C@H](CC(=O)O)NC(=O)C2CC3(C2)CN(CCc2ccc4c(n2)NCCC4)C3)c1 [Example 34] |
| 2.2 | COc1ccc(C(CC(=O)O)N2CC3(CC(CCc4ccc5c(n4)NCCC5)C3)C2)cc1F (stereo not shown) [Example 204, 3-(3-fluoro-4-methoxyphenyl)-3-(6-(2-(5,6,7,8-tetrahydro-1,8-naphthyridin-2-yl)ethyl)-2-azaspiro[3.3]heptan-2-yl)propanoic acid] |
| 3.2 | O=C(O)C[C@H](NC1CC2(C1)CN(CCCc1ccc3c(n1)NCCC3)C2)c1cc(Cl)cc(Cl)c1 [Example 79] |
| 3.8 | Cc1cc(C)c(S(=O)(=O)N[C@@H](CNC(=O)[C@H]2C[C@@H](Cc3ccc4c(n3)NCCC4)C2)C(=O)O)c(C)c1 [Example 200, (S)-3-(cis-3-((5,6,7,8-Tetrahydro-1,8-naphthyridin-2-yl)methyl)-cyclobutane-1-carboxamido)-2-((2,4,6-trimethylphenyl)sulfonamido)-propanoic acid] |
| 3.9 | O=C(O)C[C@@H](c1ccc2c(c1)OCC2)N1CC(CCCCc2ccc3c(n2)NCCC3)C1=O (stereo partly shown) [Example 105] |
| 2.9 | COc1ncc([C@H](CC(=O)O)N2CC(CCCCc3ccc4c(n3)NCCC4)C2)cn1 [Example 156] |
| 2 | COc1ccc([C@H](CC(=O)O)N2CC(CCCc3ccc4c(n3)NCCC4)C2)cc1F [Example 168, (S)-3-(3-Fluoro-4-methoxyphenyl)-3-(3-(3-(5,6,7,8-tetrahydro-1,8-naphthyridin-2-yl)propyl)azetidin-1-yl)propanoic acid] |
| 2.7 | O=C(O)C[C@@H](c1cnc2ccccc2c1)N1CC(CCCCc2ccc3c(n2)NCCC3)C1=O (stereo partly shown) [Example 107] |
